Laboratory results reported in ChEMBL document CHEMBL3769398 (J Med Chem, 2016).
Blank lines part the entries; values can stand above or below the molecule they belong to.

Tests used:
Histone deacetylase 8 [1] = molecular target: T1, Histone deacetylase 8 (Homo sapiens, UniProt Q9BY41); assay: Inhibition of full length human recombinant KDAC8 using fluorophore-conjugated substrate measured as fluorigenic release of 7-amino-4-methylcoumarin by microtiter plate reader analysis
T1 sequence (Q9BY41 whole entry): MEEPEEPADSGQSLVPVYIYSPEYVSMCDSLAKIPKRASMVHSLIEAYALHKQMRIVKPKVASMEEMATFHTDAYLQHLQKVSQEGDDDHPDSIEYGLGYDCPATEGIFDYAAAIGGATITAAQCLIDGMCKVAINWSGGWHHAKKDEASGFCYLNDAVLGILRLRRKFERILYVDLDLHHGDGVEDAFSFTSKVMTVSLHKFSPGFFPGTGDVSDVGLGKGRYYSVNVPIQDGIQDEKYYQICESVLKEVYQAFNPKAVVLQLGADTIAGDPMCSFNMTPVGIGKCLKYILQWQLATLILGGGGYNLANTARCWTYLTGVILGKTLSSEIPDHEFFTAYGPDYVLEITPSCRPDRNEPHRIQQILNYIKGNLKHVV

Histone deacetylase 1 [2] = molecular target: T2, Histone deacetylase 1 (Homo sapiens, UniProt Q13547); assay: Inhibition of recombinant human KDAC1 using FAM-labelled substrate A incubated for 60 mins by microfluidic chip-based assay
T2 sequence (Q13547 whole entry): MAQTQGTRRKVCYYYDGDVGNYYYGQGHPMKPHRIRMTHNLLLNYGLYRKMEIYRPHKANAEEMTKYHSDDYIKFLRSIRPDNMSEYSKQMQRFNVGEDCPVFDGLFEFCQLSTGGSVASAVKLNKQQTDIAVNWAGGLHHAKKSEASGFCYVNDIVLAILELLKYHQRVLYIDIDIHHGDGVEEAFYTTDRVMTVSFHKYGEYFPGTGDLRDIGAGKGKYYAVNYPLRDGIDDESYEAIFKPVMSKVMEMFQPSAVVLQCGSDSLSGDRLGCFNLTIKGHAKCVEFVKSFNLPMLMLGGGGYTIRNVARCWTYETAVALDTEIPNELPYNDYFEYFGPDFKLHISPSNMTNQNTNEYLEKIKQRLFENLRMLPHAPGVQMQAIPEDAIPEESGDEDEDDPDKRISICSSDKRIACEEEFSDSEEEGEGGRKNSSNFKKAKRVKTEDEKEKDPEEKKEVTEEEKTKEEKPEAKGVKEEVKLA

Histone deacetylase 8 [3] = molecular target: T1, Histone deacetylase 8; assay: Inhibition of recombinant human KDAC8 using FAM-labelled substrate B incubated for 60 mins by microfluidic chip-based assay
Histone deacetylase 3 [4] = molecular target: T3, Histone deacetylase 3 (Homo sapiens, UniProt O15379); assay: Inhibition of recombinant human KDAC3 using FITC-p53 acetylated peptide substrate incubated for 60 mins by microfluidic chip-based assay
T3 sequence (O15379 whole entry): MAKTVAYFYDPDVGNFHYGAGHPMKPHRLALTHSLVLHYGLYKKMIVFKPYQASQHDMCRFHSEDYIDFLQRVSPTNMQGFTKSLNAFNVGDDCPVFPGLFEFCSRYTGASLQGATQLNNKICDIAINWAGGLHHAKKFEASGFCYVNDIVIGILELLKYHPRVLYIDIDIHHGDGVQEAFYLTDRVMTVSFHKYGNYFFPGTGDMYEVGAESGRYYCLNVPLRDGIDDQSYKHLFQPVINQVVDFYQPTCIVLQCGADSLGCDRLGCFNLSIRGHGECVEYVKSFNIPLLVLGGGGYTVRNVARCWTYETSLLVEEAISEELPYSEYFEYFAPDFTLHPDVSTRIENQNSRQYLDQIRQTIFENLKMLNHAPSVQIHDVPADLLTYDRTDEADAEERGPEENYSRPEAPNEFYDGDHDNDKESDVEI

[5] = molecular target: T4, Protein deacetylase HDAC6 (Homo sapiens, UniProt Q9UBN7); assay: Inhibition of human KDAC6
T4 sequence (Q9UBN7 whole entry): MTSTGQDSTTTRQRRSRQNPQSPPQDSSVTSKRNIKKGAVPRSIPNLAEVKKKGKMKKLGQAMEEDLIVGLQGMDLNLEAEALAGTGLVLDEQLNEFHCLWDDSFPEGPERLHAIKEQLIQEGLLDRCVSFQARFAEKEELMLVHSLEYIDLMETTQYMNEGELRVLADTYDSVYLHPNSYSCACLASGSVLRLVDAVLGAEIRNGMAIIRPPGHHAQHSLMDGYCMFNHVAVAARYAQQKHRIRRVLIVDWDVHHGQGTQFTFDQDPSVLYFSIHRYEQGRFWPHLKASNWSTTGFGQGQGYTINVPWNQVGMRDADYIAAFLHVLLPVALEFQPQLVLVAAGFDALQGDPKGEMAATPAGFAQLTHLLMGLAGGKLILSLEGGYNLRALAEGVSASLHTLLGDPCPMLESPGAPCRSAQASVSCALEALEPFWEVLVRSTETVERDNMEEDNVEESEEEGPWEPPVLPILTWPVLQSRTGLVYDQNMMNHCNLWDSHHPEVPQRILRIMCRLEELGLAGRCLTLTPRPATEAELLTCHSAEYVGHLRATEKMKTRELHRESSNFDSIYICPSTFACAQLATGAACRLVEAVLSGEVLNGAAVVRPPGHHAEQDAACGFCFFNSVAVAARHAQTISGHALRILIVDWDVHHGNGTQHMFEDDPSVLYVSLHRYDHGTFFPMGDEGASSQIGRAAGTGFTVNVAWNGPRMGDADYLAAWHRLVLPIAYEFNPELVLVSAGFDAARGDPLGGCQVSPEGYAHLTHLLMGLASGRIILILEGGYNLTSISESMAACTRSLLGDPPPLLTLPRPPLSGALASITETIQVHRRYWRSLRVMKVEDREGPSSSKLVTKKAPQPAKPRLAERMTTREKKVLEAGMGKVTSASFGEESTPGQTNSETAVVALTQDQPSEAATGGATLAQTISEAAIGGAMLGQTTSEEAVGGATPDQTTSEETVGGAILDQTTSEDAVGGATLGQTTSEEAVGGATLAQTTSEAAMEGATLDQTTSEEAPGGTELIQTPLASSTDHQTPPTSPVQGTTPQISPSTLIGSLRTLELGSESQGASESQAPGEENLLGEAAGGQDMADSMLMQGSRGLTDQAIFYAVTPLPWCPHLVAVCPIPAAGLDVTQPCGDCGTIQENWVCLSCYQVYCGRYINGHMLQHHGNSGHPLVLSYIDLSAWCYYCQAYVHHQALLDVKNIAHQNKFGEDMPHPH

Histone deacetylase 1 [6] = molecular target: T2, Histone deacetylase 1; assay: Inhibition of human KDAC1
Histone deacetylase 3 [7] = molecular target: T3, Histone deacetylase 3; assay: Inhibition of human KDAC3
Histone deacetylase 8 [8] = molecular target: T1, Histone deacetylase 8; assay: Inhibition of human KDAC8
Histone deacetylase 8 [9] = molecular target: T1, Histone deacetylase 8; assay: Inhibition of human KDAC8 by fluorescence assay
[10] = molecular target: T4, Protein deacetylase HDAC6; assay: Inhibition of human KDAC6 by fluorescence assay

SMILES: CCCCCCCC(=O)SCC/C=C/[C@@H]1CC(=O)NCc2nc(cs2)C2=N[C@@](C)(CS2)C(=O)N[C@@H](C(C)C)C(=O)O1 [LARGAZOLE]
IC50 (Histone deacetylase 8 [1]): > 30 µM

SMILES: CC(C)[C@@H]1NC(=O)[C@H]2CCCN2C(=O)[C@@H]2CCCN2C(=O)C[C@H](C(=O)NCCCC(=O)NO)NC1=O
IC50 (Histone deacetylase 1 [2]): > 30 µM
IC50 (Histone deacetylase 8 [3]): > 30 µM
IC50 (Histone deacetylase 3 [4]): > 30 µM

SMILES: CC(C)[C@@H]1NC(=O)[C@@H]2CCCN2C(=O)[C@H]2CCCN2C(=O)C[C@@H](C(=O)NCCCC(=O)NO)NC1=O
IC50 (Histone deacetylase 1 [2]): 25.1 µM
IC50 (Histone deacetylase 8 [3]): > 30 µM
IC50 (Histone deacetylase 3 [4]): 13.7 µM

IC50 [5]: 1.61 µM
IC50 (Histone deacetylase 1 [6]): 3.48 µM
IC50 (Histone deacetylase 3 [7]): 0.47 µM
IC50 (Histone deacetylase 8 [8]): > 30 µM
SMILES: CC(=O)SCC/C=C/[C@@H]1CC(=O)NCc2ccc(cc2)C2=N[C@@](C)(CS2)C(=O)N[C@@H](C(C)C)C(=O)O1

IC50 (Histone deacetylase 8 [9]): > 30 µM
IC50 [10]: > 30 µM
SMILES: Nc1ccccc1NC(=O)c1ccc(-c2cn(CCc3ccsc3)nn2)cc1
